System: yellow laccase
Details: 35 °C; pH of the kinetic assay not stated; printed ABTS range 40–600 mM

Km: 71.4 µM
SMILES: CCn1c(=NN=c2sc3cc(S(=O)(=O)O)ccc3n2CC)sc2cc(S(=O)(=O)O)ccc21 [ABTS, 2,2′-Azinobis-(3-ethylbenzothiazoline-6-sulfonic acid)]
